Assay results published in US8809325B2, “Benzyl-oxathiazine derivatives substituted with adamantane and noradamantane, medicaments containing said compounds and use thereof” (SANOFI, priority 2011, dated 2014).

Target: human 11β-HSD1 microsome fraction (Homo sapiens, UniProt P28845)
Test: Enzymatic 11beta-HSD1 test (SPA-based detection)
Format: biochemical
Details: human 11β-HSD1 microsomes, [1,2-3H]-cortisone, NADPH, 37° C., 1 hour
Procedure: Enzymatic 11beta-HSD1 Test:
To measure the activity of the compounds, an SPA-based detection method (Solly et al. 2005) was employed. First of all, 20 μl of the human 11β-HSD1 microsome fraction (0.2 μg of protein), prepared in 50 mM HEPES, 0.1% BSA (w/v), were applied to a plate with 384 wells. The test compounds (0.09 μl) were applied to the assay plate in 100% DMSO. The reaction was started by addition of 20 μl of [1,2-^3H]-cortisone (0.1 μCi/[…]) in assay buffer comprising 25 mM HEPES, 100 mM KCl, 5 mM NaCl, 2 mM MgCl2 and 0.25 mM NADPH. The plate was agitated at 37° C. for 1 hour. At the same time, a stop solution comprising 20 mg/ml SPA-PVT beads, 1.6 mg/ml monoclonal cortisol antibody and 0.01 mM SSR110887 (inhibitor from the Biovitrium patent) in 50 mM HEPES, 1 M NaCl and 1 M KCl was stirred at room temperature. To stop the reaction, 25 μl of the stop solution were added to each well. The plate was agitated gently at room temperature for 1 further hour and then centrifuged at 500 gav for 1 minute, in order that the SPA beads could settle out. The plate was then read in a Wallac-1450-Microbeta unit with a standard SPA program (counting time 1 min/well). The comparative compound was glycyrrhetinic acid.
Protein and radioactive substrate were dispensed with a Biomek FX unit (Beckman Coulter) for handling liquids. […]

Sequence of human 11β-HSD1 microsome fraction (P28845 whole entry): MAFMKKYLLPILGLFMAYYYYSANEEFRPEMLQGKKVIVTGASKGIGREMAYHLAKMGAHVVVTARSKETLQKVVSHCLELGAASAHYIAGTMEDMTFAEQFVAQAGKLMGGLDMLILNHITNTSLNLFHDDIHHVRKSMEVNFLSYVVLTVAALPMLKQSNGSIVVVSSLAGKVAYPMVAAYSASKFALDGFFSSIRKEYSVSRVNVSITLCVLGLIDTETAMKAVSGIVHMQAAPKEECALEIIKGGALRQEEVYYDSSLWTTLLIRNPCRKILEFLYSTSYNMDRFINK

IC50: 3 nM
SMILES: CCN1CC(c2ccc(C[C@@H]3C(C)(C)OC(NC45C[C@@H]6C[C@@H](C[C@H]4C6)C5)=NS3(=O)=O)c(F)c2)C1 [Example 6, {(R)-5-[4-(1-Ethyl-azetidin-3-yl)-2-fluoro-benzyl]-6,6-dimethyl-4,4-dioxo-5,6-dihydro-4H-4lambda6-[1,4,3]oxathiazin-2-yl}-(2R,3aS,5S,6aS)-hexahydro-2,5-methano-pentalen-3a-yl-amine]
